Results: patent US20230399317A1, “COMPOUNDS AND METHODS FOR THE TREATMENT OF OCULAR DISORDERS” (Azura Ophthalmics Ltd., priority 2020, published 2023)

Columns and labels:
[1] = Rabbit Cornea Homogenate stability (esterase) assay, Method 1; assay type: in vitro ADME; conditions: for Esterase % Lifitegrast formation at 45 min: 37° C., Method 1 (50 mM HEPES pH 7.5); for Esterase % keratolytic agent formation at 45 min / API Formation rate (%/min): Method 1
Description: (§1) Determining Rabbit Cornea Homogenate stability of the test compounds was performed using HPLC-MS or UPLC-MS. The assay was performed at two concentrations of Rabbit Cornea Homogenate (0.15 mg/mL and 0.45 mg/mL total protein) so that any hydrolysis observed can be assigned as esterase dependent or not.
(§2) Three to five rabbit corneas (e.g. New Zealand Whites (NZW) or Dutch Belted (DB)) of approx. 50 mg each were sliced and scraped with a scalpel and tweezers until reduced to small (1-3 mm), thin pieces. These were transferred into a glass vial containing approximately 2 mL of cold DPBS pH 7.4 buffer.
(§3) Sample was cooled intermittently on ice and shear homogenized for 3 minutes, then centrifuged for 3 min at 13,000 g. The supernatant was pipetted off into a vial, and total protein concentration determined at 280 nm. Sample was stored at −78° C.
10 mM Compound stocks were diluted to 100 μM in a 96 deep-well plate: 10 μL of 10 mM Compound stock was added to 990 μL 50 mM HEPES, pH 7.5 buffer. Compounds were further diluted to 10 μM: 100 μL of 100 μM compound was added to 900 μL 50 mM HEPES, pH 7.5 buffer. Esterase homogenate was diluted to 300 ng/μL and 900 ng/μL.
A heater shaker was set to 37° C. Into a suitable 96 well plate (Run Plate), 75 μL of 300 or 900 ng/μL esterase homogenate was pipetted into each of the required wells (2 min, 5 min, 10 min, 20 min and 45 min). The plate was sealed and then warmed at 37° C. for 5 min.
Another 96 well PCR plate was put on ice (Kill Plate). To this was added 100 μL of MeCN to each well, labelled 0 min 2 min, 5 min, 10 min, 20 min and 45 min. The plate was covered to minimize evaporation.
For the T=0 sample only, to the 100 μL cold MeCN stop solution was added 50 μL of 300 or 900 ng/μL esterase homogenate followed by 50 μL of 10 μM compound solution. For the remaining timepoints, 75 μL of 10 μM compound solution was added to the Run Plate starting from T=45 min row and ending with T=2 min row. At the appropriate time point, 100 μL of the assay mixture was added to the matching kill plate well containing 100 μL of cold MeCN. Samples were analyzed as soon as practicable by LCMS (Waters Xevo TQ-S or Micromass Ultima).
(§4) Parent conjugate and parent concentrations were determined against appropriate standard response curves and the half-life (T½) of the parent conjugate was calculated using the peak area of the parent conjugate at each time point in the linear region of the log-linear plot.

[2] = Aqueous hydrolysis stability assay, Method 1; assay type: physicochemical; conditions: 45 min; Method 1: 50 mM HEPES pH 7.5 or 1:1 acetonitrile:water, room temperature
Description: (§5) Determination of aqueous stability of the test compounds was performed using HPLC-MS or UPLC-MS. A test compound 10 mM stock solution was prepared in DMSO. Half-life (T1/2) of the parent conjugate is calculated using the peak area of the parent conjugate at each time point in the linear region of the log-linear plot.
10 μL of the DMSO stock solution was dissolved in 990 μL of 50 mM HEPES pH 7.5 buffer or 1:1 (v/v) of acetonitrile:water to make a 100 μM solution. Final DMSO concentration was 1%. The solution was kept at room temperature and injected without delay into the LCMS (Waters Xevo TQ-S or Micromass Ultima). Additional injections were performed at appropriate time points.

[3] = Rabbit Cornea Homogenate stability (esterase) assay, Method 2; assay type: in vitro ADME; conditions: for Esterase % Lifitegrast formation at 45 min: 37° C., Method 2 (DPBS pH 7.4); for API Formation rate (%/min): Method 2
Description: as §1, §2, §3
10 mM Compound DMSO stocks were diluted to 10 μM in a glass vial: 10 μL of 10 mM Compound stock was added to 9,990 μL DPBS, pH 7.4 buffer. Esterase homogenate was diluted to 300 ng/μL and 900 ng/μL in DPBS. […]
A heater shaker was set to 37° C. Into a suitable 96 well plate (Run Plate), 80 μL of 300 or 900 ng/μL esterase homogenate was pipetted into two rows as compounds were analyzed in duplicate (0 min, 2 min, 5 min, 10 min, 20 min and 45 min). The plate was sealed and then warmed at 37° C. for 5 min.
Two 96 shallow-well plates were placed on ice (Kill Plates). To these, 180 μL of 60:40 MeCN-H2O+0.1% acetic acid were added to required rows. The plates were sealed to minimise evaporation.
To both rows of the Run Plate, 80 μL of 10 μM compound solution was added. At the appropriate time point, 20 μL of the assay mixture was added to the matching kill plate well containing 180 μL of 60:40 cold MeCN-H2O+0.1% acetic acid. For lipoic acid analysis, samples were analysed as soon as practicable by LCMS (Waters Xevo TQ-S). For parent conjugate and parent analysis the samples were diluted further 1 in 10: 20 μL supernatant was added to 180 μL of 50:50 MeCN—H2O.
as §4, with “Parent conjugate, parent” for “Parent conjugate”, “and keratolytic” for “and parent”, “area or the measured concentration” for “area”

[4] = Aqueous hydrolysis stability assay, Method 2; assay type: physicochemical; conditions: Method 2: DPBS pH 7.4, 37° C.
Description: as §5
10 μL of the DMSO stock solution is dissolved in 990 μL of DPBS pH 7.4 buffer to prepare 100 μM solution. A further dilution is made by dissolving 75 μL of 100 μM stock solution into 225 μL of DPBS. Final DMSO concentration is 0.25%. The solution is kept at 37° C. and injected without delay into the LCMS (Waters Xevo XSQ-ToF). Additional injections are performed at appropriate time points.

human T-cell line = conditions: in vitro; cited from earlier work
[5] = test system: human peripheral blood mononuclear cells; conditions: in vitro; cited from earlier work
[6] = test system: patients with dry eye and delayed tear clearance; conditions: 0.5% ophthalmic suspension, QID, 4 weeks, 64 patients (Pflugfelder et al 2004); cited from earlier work
[7] = Cornea Homogenate Conc 0.15 mg/mL
[8] = Cornea Homogenate Conc 0.45 mg/mL

Esterase % Lifitegrast formation at 45 min [3, 7]	API Formation rate (%/min) [3, 7]	Esterase % Lifitegrast formation at 45 min [3, 8]	API Formation rate (%/min) [3, 8]	Compound	other results
C (percent API formation 51% to 75%)	c (API formation rate 1.0-1.5%/min)	C (percent API formation 51% to 75%)	c (API formation rate 1.0-1.5%/min)	CC(OC(=O)CCC(=O)O)OC(=O)[C@H](Cc1cccc(S(C)(=O)=O)c1)NC(=O)c1c(Cl)cc2c(c1Cl)CCN(C(=O)c1ccc3ccoc3c1)C2 (stereo partly shown) [Compound 45]	Hydrolytic % Lifitegrast formation at [time] ([4]; 44 min): C [44 min] (percent API formation >4%)
B (percent API formation 25% to 50%)	b (API formation rate 0.5-1.0%/min)	C (percent API formation 51% to 75%)	c (API formation rate 1.0-1.5%/min)	CC(OC(=O)CCC(=O)OC(C)(C)C)OC(=O)[C@H](Cc1cccc(S(C)(=O)=O)c1)NC(=O)c1c(Cl)cc2c(c1Cl)CCN(C(=O)c1ccc3ccoc3c1)C2 (stereo partly shown) [Compound 48]	

Further lines, the molecule ahead of its results:

Compound	Esterase % Lifitegrast formation at 45 min [3, 7]	API Formation rate (%/min) [3, 7]	Esterase % Lifitegrast formation at 45 min [3, 8]	API Formation rate (%/min) [3, 8]	other results
CC(=O)N[C@@H](CS)C(=O)OC(C)OC(=O)[C@H](Cc1cccc(S(C)(=O)=O)c1)NC(=O)c1c(Cl)cc2c(c1Cl)CCN(C(=O)c1ccc3ccoc3c1)C2 (stereo partly shown) [Compound 5]					Esterase % Lifitegrast formation at 45 min [1, 7]: A (percent active pharmaceutical ingredient (API) formation <25%); Esterase % keratolytic agent formation at 45 min [1, 7]: A (percent active pharmaceutical ingredient (API) formation <25%); API Formation rate (%/min) [1, 7]: a (API formation rate <0.5%/min); Esterase % Lifitegrast formation at 45 min [1, 8]: A (percent active pharmaceutical ingredient (API) formation <25%); Esterase % keratolytic agent formation at 45 min [1, 8]: A (percent active pharmaceutical ingredient (API) formation <25%); API Formation rate (%/min) [1, 8]: a (API formation rate <0.5%/min); Hydrolytic % Lifitegrast formation at [time] [2]: C [45 min] (percent API formation >4%)
CC(=O)SCC(=O)OC(C)OC(=O)[C@H](Cc1cccc(S(C)(=O)=O)c1)NC(=O)c1c(Cl)cc2c(c1Cl)CCN(C(=O)c1ccc3ccoc3c1)C2 (stereo partly shown) [Compound 31]	D (percent API formation >75%)	d (API formation rate >1.5%/min)	D (percent API formation >75%)	d (API formation rate >1.5%/min)	Hydrolytic % Lifitegrast formation at [time] ([4]; 60 min): C [60 min] (percent API formation >4%)
CC(=O)N[C@@H](CSSC[C@H](NC(C)=O)C(=O)OC(C)OC(=O)[C@H](Cc1cccc(S(C)(=O)=O)c1)NC(=O)c1c(Cl)cc2c(c1Cl)CCN(C(=O)c1ccc3ccoc3c1)C2)C(=O)OC(C)OC(=O)[C@H](Cc1cccc(S(C)(=O)=O)c1)NC(=O)c1c(Cl)cc2c(c1Cl)CCN(C(=O)c1ccc3ccoc3c1)C2 (stereo partly shown) [Compound 49]	A (percent active pharmaceutical ingredient (API) formation <25%)	a (API formation rate <0.5%/min)	A (percent active pharmaceutical ingredient (API) formation <25%)	a (API formation rate <0.5%/min)	
CS(=O)(=O)c1cccc(C[C@H](NC(=O)c2c(Cl)cc3c(c2Cl)CCN(C(=O)c2ccc4ccoc4c2)C3)C(=O)O)c1 [lifitegrast]					inhibition of T-cell adhesion to ICAM-1 (human T-cell line): may inhibit T-cell adhesion to ICAM-1; inhibition of secretion of inflammatory cytokines [5]: may inhibit secretion of inflammatory cytokines
CCOC(=O)O[C@]1(C(=O)OCCl)CC[C@H]2[C@@H]3CCC4=CC(=O)C=C[C@]4(C)[C@H]3[C@@H](O)C[C@@]21C [loteprednol etabonate]					improving some signs and symptoms versus vehicle [6]: more effective than its vehicle
